Measurements taken from patent publication US6649760B2, “Substituted phenyluracils” (priority 2000, dated 2003).

Tests used:
[1] = log P determination by HPLC (reversed-phase C18), EEC Directive 79/831 Annex V.A8; type: physicochemical; settings: reversed-phase C18 HPLC column; a) acidic range: 0.1% aqueous phosphoric acid, acetonitrile, linear gradient 10% to 90% acetonitrile; HPLC C18, 43° C.
Source text: (a) Mobile phases for the determination in the acidic range: 0.1% aqueous phosphoric acid, acetonitrile; linear gradient from 10% acetonitrile to 90% acetonitrile—the corresponding test results in Table I are labelled a).
(b) Mobile phases for the determination in the neutral range: 0.01 molar aqueous phosphate buffer solution, acetonitrile; linear gradient from 10% acetonitrile to 90% acetonitrile—the corresponding test results in Table 1 are labelled b).

[2] = test system: weeds; experiment: Pre-emergence test (Example A); type: in vivo; settings: soil sprayed 24 hours after sowing, rated after three weeks vs untreated control
Description: (§1) Solvent: 5 parts by weight of acetone
(§2) Emulsifier: 1 part by weight of alkylaryl polyglycol ether
(§3) To produce a suitable preparation of active compound, 1 part by weight of active compound is mixed with the stated amount of solvent, the stated amount of emulsifier is added and the concentrate is diluted with water to the desired concentration.
Seeds of the test plants are sown in normal soil. After 24 hours, the soil is sprayed with the preparation of active compound such that the particular amount of active compound desired is applied per unit area. The concentration of active compound in the spray liquor is chosen such that the particular amount of active compound desired is applied in 1000 liters of water per hectare.
After three weeks, the degree of damage to the plants is rated in % damage in comparison to the development of the untreated control. The figures denote:
(§4) 0%=no effect (like untreated control)

[3] = test system: weeds; experiment: Post-emergence test (Example B); type: in vivo; settings: test plants of 5-15 cm sprayed, rated after three weeks vs untreated control
Description: as §1, §2, §3
Test plants of a height of 5-15 cm are sprayed with the preparation of active compound such that the particular amounts of active compound desired are applied per unit area. The concentration of the spray liquor is chosen such that the particular amounts of active compound desired are applied in 1000 l of water/ha.
After three weeks, the degree of damage to the plants is rated in % damage in comparison to the development of the untreated control.
as §4

chromatographic logP [1] | Compound | activity against weeds (degree of damage to the plants) [2] | activity against weeds (degree of damage to the plants) [3]
1.96 | O=c1cc(C(F)(F)F)[nH]c(=O)n1-c1cc(Oc2ncccn2)c(Br)cc1F [Example 1, 1-[4-bromo-2-fluoro-5-(pyrimidin-2-yl-oxy)-phenyl]-4-trifluoromethyl-3,6-dihydro-2,6-dioxo-1 (2H)-pyrimidine] |  | 
2.47 | Cn1c(C(F)(F)F)cc(=O)n(-c2cc(Oc3ncccn3)c(Br)cc2F)c1=O [Example 2, 1-[4-bromo-2-fluoro-5-(pyrimidin-2-yl-oxy)-phenyl]-3-methyl-4-trifluoromethyl-3 ,6-dihydro-2,6-dioxo-1 (2H)-pyrimidine] | very strong activity | very strong activity
